The test system of data set [1] is human monocytic leukemia THP-1 cell line. As to the kind of experiment: In vitro cytotoxicity assay (LDH). How it is done:
Human monocytic leukemia THP-1 cells were obtained from the European Collection of Cell Cultures (ECACC, Salisbury, UK; Methods of characterization: DNA Fingerprinting (Multilocus probes) and isoenzyme analysis). These cells were routinely cultured in RPMI 1640 (Lonza, Verviers, Belgium) medium supplemented with 10% fetal bovine serum (FBS, Sigma-Aldrich, St. Louis, MO, USA), 2% L-glutamine, 1% penicillin and streptomycin (Lonza) at 37 °C with 5% CO2. Cells were passaged at approximately one-week intervals. Cells were routinely tested for the absence of mycoplasma (Hoechst 33258 staining method). The tested compounds were dissolved in DMSO (Sigma-Aldrich) and added in five increasing concentrations to the cell suspension in the culture medium. The maximum concentration of DMSO in the assays never exceeded 0.1%. Subsequently, the cells were incubated for 24 h at 37 °C with 5% CO2 to various compound concentrations ranging from […] in RPMI 1640 medium. Cell toxicity was determined using a Cytotoxicity Detection Kit^PLUS Lactate dehydrogenase (LDH) assay kit (Roche Diagnostics, Mannheim, Germany) according to the manufacturer’s instructions, as described previously. For LDH assays, cells were seeded into 96-well plates (5 × 10^4 cells/well in 100 μL culture medium) in triplicate in serum-free RPMI 1640 medium, and measurements at 492 nm wavelength (Synergy 2 Multi-Mode Microplate Reader, BioTek, Winooski, VT, USA) were taken 24 h after the treatment with tested compounds. The median lethal dose values, LD50, were deduced through the production of a dose-response curve. All data were evaluated using GraphPad Prism 5.00 software (GraphPad Software, San Diego, CA, USA).
LDH Test Principle: The LDH activity is determined by a coupled enzymatic reaction, whereby the tetrazolium salt INT is reduced to formazan. An increase in the amount of dead or plasma membrane damaged cells results in an increase of LDH enzyme activity in the culture supernatant. This increase in the amount of enzyme activity in the supernatant directly correlates to the amount of formazan formed during a limited time period.

Data set [2] in a line: Solubility in PET tested medium. It counts as physicochemical. The note with it: PET assay medium, phosphate buffer pH 7.2, DMSO up to 4%. How it is done: Chloroplasts were prepared from spinach (Spinacia oleracea L.) according to Masarovicova and Kralova. The inhibition of photosynthetic electron transport (PET) in isolated spinach chloroplasts was determined spectrophotometrically (Genesys 6, Thermo Scientific, USA), using an artificial electron acceptor 2,6-dichlorophenol-indophenol (DCIPP) according to Kralova et al., and the rate of photosynthetic electron transport was monitored as a photoreduction of DCPIP. The measurements were carried out in phosphate buffer (0.02 mol/L, pH 7.2) containing sucrose (0.4 mol/L), MgCl2 (0.005 mol/L) and NaCl (0.015 mol/L). The chlorophyll content was 30 mg/L in these experiments and the samples were irradiated (~100 W/m^2 with 10 cm distance) with a halogen lamp (250 W) using a 4 cm water filter to prevent warming of the samples (suspension temperature 22 °C). The studied compounds were dissolved in DMSO due to their limited water solubility. […] The inhibitory efficiency of the studied compounds was expressed by IC50 values, i.e., by molar concentration of the compounds causing 50% decrease in the oxygen evolution rate relative to the untreated control.

We go through one compound from paper PMC6270837, “Preparation and Biological Properties of Ring-Substituted Naphthalene-1-Carboxanilides” (Molecules, 2014).

Entries after “also recorded” stand apart in the source; their conditions may differ.

`Cc1ccc(NC(=O)c2cccc3ccccc23)cc1` [Compound 3c, N-(4-Methylphenyl)naphthalene-1-carboxamide]: in data set [1] (human, 24 h), the LD50 is >30 µmol/L. Also, the “lethal effect / toxicity on THP-1 cells” value in data set [1] (treatment with 30 μmol/L) was “did not lead to significant lethal effect; also recorded: insignificant toxicity”. For the same compound, the “solubility in tested medium (PET experiments)” value in data set [2] is “limited solubility”.
